Assay results: publication PMC6748986, “Potent modulation of the CepR quorum sensing receptor and virulence in a Burkholderia cepacia complex member using non-native lactone ligands” (Scientific Reports, 2019)
Values joined by “and” are separate entries in the source; they are usually repeats but may differ in a detail not shown here. Equal values may be shown once.

Legend:
[1] = target: T1, CepR (Burkholderia cenocepacia, UniProt B4EMD0); test: CepR antagonism in E. coli β-galactosidase reporter (Ec-reporter), competition against C8-AHL; format: cell-based, B. cenocepacia; conditions: for Inh% (100-Act%): Table S3, Ec-reporter; for CepR antagonism in words: Ec-reporter
T1 sequence (B4EMD0 1-239): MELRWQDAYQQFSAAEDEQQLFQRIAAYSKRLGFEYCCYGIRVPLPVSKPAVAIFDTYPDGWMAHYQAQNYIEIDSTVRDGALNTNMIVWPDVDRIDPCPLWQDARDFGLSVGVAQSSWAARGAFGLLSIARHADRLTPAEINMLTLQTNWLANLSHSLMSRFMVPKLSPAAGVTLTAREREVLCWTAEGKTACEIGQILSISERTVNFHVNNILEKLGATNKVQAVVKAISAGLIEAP
Description: (§1) We began our study by screening the AHL library for CepR modulators using an E. coli-based two plasmid reporter system (Ec-reporter)[38]–[40]. Certain members of the Bcc harbor additional QS systems that are either AHL-based (e.g., BviI/BviR in B. vietnamiensis)[41] or diffusible signal factor (DSF)-based (B. cenocepacia)[42], and at least one member of the Bcc has multiple receptors that respond to C8-AHL (e.g., CepR and CepR2 in B. cenocepacia)[43]. Thus, we reasoned that using a CepR reporter in a heterologous background could simplify our initial analyses. We modified our previously reported E. coli-based two plasmid β-galactosidase reporter system to develop a CepR Ec-reporter (see Methods). The first plasmid, pJN105-cepR, contains CepR from B. cenocepacia under the control of the L-arabinose inducible pBAD promoter. A second plasmid contains a transcriptional fusion of lacZ to the cepI promoter region. The two plasmids were co-transformed into a QS mutant E. coli strain (JLD271 ∆sdiA) that lacks its LuxR-type receptor, SdiA. Using this reporter system, if an exogenously -added compound is able to interact with CepR, this will affect the protein’s interaction with the cepI promoter region and alter β-galactosidase production. Enzyme production, and thereby CepR activity, is then measurable via the degradation of a colorimetric substrate for β-galactosidase. Using this new Ec-reporter, we observed robust activity of CepR in response to its native ligand C8-AHL, with an EC50 of 5 nM (Table 1).
To identify antagonists of CepR, we screened the AHL library (at 100 μM) in competition against the native ligand C8-AHL (at approximately twice its EC50 value, 0.01 μM) in the Ec-reporter. […] The active compounds were subjected to dose-response analyses in the Ec-reporter to obtain IC50 values and assess their relative potencies (Table 2; see Table S3 for complete screening data and Fig. S3 for dose-response curves). One general trend that we noted at the outset was the majority of the antagonists had acyl tails of similar or shorter overall length than CepR’s native ligand, C8-AHL. From this set, the strongest antagonists could be divided into two classes: (i) “short alkyl tail” AHLs or analogs thereof, and (ii) phenylacetanoyl HLs (PHLs). The discovery that the latter compounds were CepR antagonists was perhaps not surprising, as we have found substituted PHLs to strongly antagonize the majority of the LuxR-type receptors studied in our laboratory to date[22],[24],[29],[45],[46].
(§2) E. coli β-galactosidase reporter assays (derived from ref.[63]) and reagents used to obtain primary screening and dose-response data were performed as previously described[22],[60],[64], with the following modifications: E. coli JLD271 (∆sdiA) was co-transformed iteratively with pSC11-cepI and pJN105-cepR via electroporation. A single colony was used to start overnight cultures in LB medium + ampicillin (100 μg/mL) + gentamicin (15 μg/mL). A 1:10 dilution of overnight culture was grown in fresh medium to OD600 = 0.25. A sterile solution of L-arabinose in water (27 mM final concentration) was added to induce protein expression, after which cells were plated in 96-well plates containing varying concentrations of compound (200 μL total volume).
(§3) Cells were grown for 4 h, OD600 was read, 50 μL aliquots from each well were permeabilized in 200 μL Z Buffer, and then 150 μL of this mixture used to measure the cleavage of 25 μL of 4 mg/mL CPRG in phosphate buffered saline (PBS) at 37 °C until positive control wells developed a deep red color (~30 min). For all agonism assays, synthetic compound (100 μM) was screened alongside and compared to the native ligand, C8-AHL (100 μM). For all primary and dose-response antagonism assays, the concentration of native ligand utilized was 10 nM (approximately equal to twice its EC50 value). […] At least 3 separate trials were performed using unique cultures on separate days.

[2] = target: T1, CepR; test: CepR agonism in E. coli β-galactosidase reporter (Ec-reporter) JLD271 [pJN105-cepR + pSC11-cepI]; format: cell-based, B. cenocepacia; conditions: for Maximal Activation (%): activity for 100 μM C8-AHL set to 100%, error ±10%
Description: as §1
We used the CepR Ec-reporter to perform a primary agonism screen at a single compound concentration (100 μM, or its solubility limit, indicated in Table S1). Thirty-one compounds displaying ≥70% agonistic activity in CepR (relative to C8-AHL) were identified and subjected to dose-response analyses using the Ec-reporter (Table I; see Table S2 for complete screening data and Fig. S3 for dose-response curves).
as §2, §3

[3] = screening conc. 100 μM, against 10 nM C8-AHL
[4] = Table S2, Ec-reporter, screening conc. 100 μM
[5] = Ec-reporter, agonism dose-response

Row | Structure (SMILES) | Inh% (100-Act%) [1, 3] [%] | Act% [2, 4] [%] | other results
1 | O=C(COc1ccc(OC(F)(F)F)cc1)N[C@H]1CCOC1=O [Compound D15] | -20 | 46 | –
2 | O=C(N[C@H]1CCOC1=O)c1ccc(N=Nc2ccccc2)cc1 [Compound D20] | – | – | Inh% (100-Act%) ([1]; screening conc. 77 μM): 8.0%; Act% ([2]; Table S2, Ec-reporter, screening conc. 77 μM): 37%
3 | CCCC(=O)CC(=O)NC1CCSC1=O (stereo not drawn) [3’O-C6-TL] | 4.0 | 1.6 | –
4 | CCCCCCCCCC(=O)N[C@H]1CCOC1=O [Compound C10-AHL, decanoyl L-homoserine lactone, reference compound] | -30 | 87 | EC50 [2, 5]: 109 nM and 110 nM; Maximal Activation (%) ([2]; Ec-reporter): 87%
5 | Cc1ccc(C(=O)CCC(=O)N[C@H]2CCOC2=O)cc1 [Compound D6] | -50 | 61 | –
6 | O=C(COc1ccc(Cl)cc1)N[C@H]1CCOC1=O [Compound E20] | -20 | 100 | EC50 ([2]; Table S2, Ec-reporter): 210 nM
7 | O=C(Cc1cccc([N+](=O)[O-])c1)NC1CCCC1 [Compound F18] | -20 | 1.0 | CepR antagonism in words [1]: dramatic losses in activity
8 | CCCCCCCCCCCCCCCC(=O)N[C@H]1CCOC1=O [Compound C16-AHL, hexadecanoyl L-homoserine lactone, reference compound] | – | – | Inh% (100-Act%) ([1]; screening conc. 25 μM): -10%; CepR agonism in words ([2]; Ec-reporter): inactive; Maximal Activation (%) ([2]; Ec-reporter): 35%; Act% ([2]; Table S2, Ec-reporter, screening conc. 25 μM): 35%
9 | O=C(N[C@H]1CCOC1=O)c1cccc(Br)c1 [Compound Q2] | -30 | 4.9 | –
10 | Cc1ccc(OCC(=O)N[C@H]2CCOC2=O)cc1 [Compound E15] | -30 | 65 | –
11 | O=C(Cc1ccc(-c2ccccc2)cc1)NC1CCCC1 [Compound F20] | -10 | 0.5 | –
12 | CCCCCCCCCCCCCC(=O)N[C@H]1CCOC1=O [Compound C14-AHL, tetradecanoyl L-homoserine lactone, reference compound] | -10 | 49 | CepR agonism in words ([2]; Ec-reporter): inactive; Maximal Activation (%) ([2]; Ec-reporter): 49%
13 | CSc1ccc(CC(=O)N[C@H]2CCOC2=O)cc1 [Compound E6] | -10 | 3.7 | –
14 | CCCCCC(=O)CC(=O)N[C@@H]1CCOC1=O [D-3’O-C8-AHL] | -40 | 85 | CepR agonism in words ([2]; Ec-reporter): inactive; EC50 [2, 5]: ≥ 27000 nM; Maximal Activation (%) ([2]; Ec-reporter): 85%
15 | O=C(Cc1cccc([N+](=O)[O-])c1)Nc1ccccc1 [Compound F25] | 12 | 3.0 | CepR antagonism in words [1]: dramatic losses in activity
16 | O=C(CCc1ccccc1)N[C@H]1CCOC1=O [Compound B9] | -40 | 88 | EC50 fold higher than those for substituted PPHLs ([2]; Ec-reporter): ~ 1000 fold; EC50 [2, 5]: 1000 nM; Maximal Activation (%) ([2]; Ec-reporter): 88%
17 | CCCCCCCCCC(=O)CC(=O)Nc1ccccc1 [Compound V-06-018, reference compound] | – | – | Inh% (100-Act%) ([1]; screening conc. 100 μM, against 10 nM C8-AHL, listed as V-06-01 8): -20%; Act% ([2]; Table S2, Ec-reporter, screening conc. 100 μM, listed as V-06-01 8): 2.4%
18 | CCCCCCCCCCCC(=O)N[C@H]1CCOC1=O [Compound C12-AHL, Dodecanoyl L-homoserine lactone, reference compound] | -30 | 98 | EC50 [2, 5]: 310 nM; Maximal Activation (%) ([2]; Ec-reporter): 98%
19 | O=C(Cc1ccc(-c2ccccc2)cc1)N[C@H]1CCOC1=O [Compound C18] | -20 | 1.4 | –
20 | CCCCCCCCc1ccc(C(=O)N[C@H]2CCOC2=O)cc1 [Compound D13] | 38 | 4.2 | –
21 | O=C(Cc1ccc2ccccc2c1)N[C@H]1CCOC1=O [Compound E12] | -10 | 11 | –
22 | CCCCCCCCCC(=O)CC(=O)NCc1ccc(OC)cc1 [Compound F31] | 21 | 7.6 | –
23 | CCCCCCCCCCCC(O)CC(=O)N[C@@H]1CCOC1=O (stereo partly drawn) [3’OH-C14-AHL, reference compound] | -40 | 33 | –
